# Laboratory results: patent US20120277209A1, “PYRAZINE COMPOUNDS AS PHOSPHODIESTERASE 10 INHIBITORS” (Amgen Inc., priority 2009, published 2012)
# Biological target: PDE10 (UniProt Q9Y233)
# Experiment: PDE10 enzyme inhibition, IMAP TR-FRET assay (MPDE10A7 Enzyme Activity and Inhibition)
# Type: biochemical
# Conditions: IC50 class against PDE10; read-out: IC50
# Protocol: All compounds were divided in five classes based on their IC50 values against PDE10. The range of the IC50 in each class is as follows:
# An IMAP TR-FRET assay was used to analyze the enzyme activity (Molecular Devices Corp., Sunnyvale Calif.). 5 μL of serial diluted PDE10A (BPS Bioscience, San Diego, Calif.) or tissue homogenate was incubated with equal volumes of diluted fluorescein labeled cAMP or cGMP for 60 min in 384-well polystyrene assay plates (Corning, Corning, N.Y.) at room temperature. After incubation, the reaction was stopped by adding 60 μL of diluted binding reagents and was incubated for 3 hours to overnight at room temperature. The plates were read on an Envision (Perkin Elmer, Waltham, Mass.) for time resolved fluorescence resonance energy transfer. The data were analyzed with GraphPad Prism (La Jolla, Calif.).
# Enzyme Inhibition. To check the inhibition profile, 5 μL of serial diluted compounds were incubated with 5 μL of diluted PDE10 enzyme (BPS Bioscience, San Diego, Calif.) or tissue homogenate in a 384-well polystyrene assay plate (Corning, Corning, N.Y.) for 30 min at room temperature. After incubation, 10 μL of diluted fluorescein labeled cAMP or cGMP substrate were added and incubated for 60 min at room temperature. The reaction was stopped by adding 60 μL of diluted binding reagents and plates were read on an Envision (Perkin Elmer, Waltham, Mass.) for time resolved fluorescence resonance energy transfer. The data were analyzed with GraphPad Prism (La Jolla, Calif.).
# The tabulated IC50 data represent an average IC50 data for each compound.
row,Structure (SMILES),IC50 [nM]
1,"Cc1cc(-c2nccnc2Oc2ccc(C(=O)c3nc4ccccc4[nH]3)cc2)ccn1 [Example 107, (1H-benzo[d]imidazol-2-yl)(4-(3-(2-methylpyridin-4-yl)pyrazin-2-yloxy)phenyl)methanone]",< 25
2,"N#CC1CCN(c2nccnc2Oc2ccc(Nc3nc4ccccc4s3)cc2)CC1 [Example 70, 1-(3-(4-(benzo[d]thiazol-2-ylamino)phenoxy)pyrazin-2-yl)piperidine-4-carbonitrile]",< 25
3,"COc1cccc(-c2nccnc2Oc2ccc(C(=O)c3nc4ccccc4[nH]3)cc2)c1 [Example 128, (1H-benzo[d]imidazol-2-yl)(4-(3-(3-methoxyphenyl)pyrazin-2-yloxy)phenyl)methanone]",< 25
4,"COc1ncccc1-c1nccnc1Oc1ccc(Nc2nc3ccccc3s2)cc1 [Example 155, N-(4-(3-(2-methoxypyridin-3-yl)pyrazin-2-yloxy)phenyl)benzo[d]thiazol-2-amine]",< 25
5,CN1CCCC1CCOc1nccnc1Oc1ccc(C(=O)c2nc3ccccc3[nH]2)cc1 (stereo not drawn) [Example 175],100 to 250
6,"NC(=O)C1CCN(c2nccnc2Oc2ccc(Nc3nc4ccccc4s3)cc2)CC1 [Example 81, 1-(3-(4-(benzo[d]thiazol-2-ylamino)phenoxy)pyrazin-2-yl)piperidine-4-carboxamide]",< 25
7,"O=C(O)c1ccc(-c2nccnc2Oc2ccc(C(=O)c3nc4ccccc4[nH]3)cc2)cc1 [Example 127, 4-(3-(4-(1H-benzo[d]imidazole-2-carbonyl)phenoxy)pyrazin-2-yl)benzoic acid]",< 25
8,"O=C(c1ccc(Oc2nccnc2C2=CCOCC2)cc1)c1nc2ncccc2[nH]1 [Example 131, (4-(3-(3,6-dihydro-2H-pyran-4-yl)pyrazin-2-yloxy)phenyl)(1H-imidazo[4,5-b]pyridin-2-yl)methanone]",25 to 100
9,"CC(=O)N1CCN(c2nccnc2Oc2ccc(Nc3nc4ccccc4s3)cc2)CC1 [Example 71, 1-(4-(3-(4-(benzo[d]thiazol-2-ylamino)phenoxy)pyrazin-2-yl)piperazin-1-yl)ethanone]",25 to 100
10,"CN1CCC(c2nccnc2Oc2ccc(Nc3nc4ccccc4s3)cc2)CC1 [Example 237, N-(4-(3-(1-methylpiperidin-4-yl)pyrazin-2-yloxy)phenyl)benzo [d]thiazol-2-amine]",< 25
11,"c1ccc2sc(Nc3ccc(Oc4nccnc4-c4cccc5ncccc45)cc3)nc2c1 [Example 147, N-(4-(3-(quinolin-5-yl)pyrazin-2-yloxy)phenyl)benzo[d]thiazol-2-amine]",25 to 100
12,"CC(=O)N1CCC(c2nccnc2Oc2ccc(Nc3nc4ccccc4s3)cc2)CC1 [Example 225, 1-(4-(3-(4-(BENZO[D]THIAZOL-2-YLAMINO)PHENOXY)PYRAZIN-2-YL)PIPERIDIN-1-YL)ETHANONE]",< 25
13,"COC[C@H](C)NC(=O)c1nccnc1Oc1ccc(C(=O)c2nc3ccccc3[nH]2)cc1 [Example 256, (S)-3-(4-(1H-benzo[d]imidazole-2-carbonyl)phenoxy)-N-(1-methoxypropan-2-yl)pyrazine-2-carboxamide]",25 to 100
14,"CC(=O)N1CCC(c2nccnc2Oc2ccc(Nc3nc4ccccc4s3)cc2F)CC1 [Example 248, 1-(4-(3-(4-(benzo[d]thiazol-2-ylamino)-2-fluorophenoxy)pyrazin-2-yl)piperidin-1-yl)ethanone]",< 25
15,"Fc1ccc2sc(Nc3ccc(Oc4cnccn4)cc3)nc2c1 [Example 219, 5-fluoro-N-(4-(pyrazin-2-yloxy)phenyl)benzo[d]thiazol-2-amine]",1000 to 5000
16,"O=C(c1ccc(Oc2nccnc2Cl)cc1)c1nc2ccc(F)cc2[nH]1 [Example 4, [4-(3-CHLORO-PYRAZIN-2-YLOXY)-PHENYL]-(6-FLUORO-1H-BENZOIMIDAZOL-2-YL)-METHANONE]",1000 to 5000
17,"O=C(c1ccc(Oc2nccnc2[C@H]2CCC[C@H](O)C2)cc1)c1nc2ccccc2[nH]1 (racemic) [Example 190, (rac)-trans-(1H-benzo[d]imidazol-2-yl)(4-(3-(3-hydroxycyclohexyl)pyrazin-2-yloxy)phenyl)methanone]",< 25
18,"O=C(c1ccc(Oc2nccnc2C2CCNCC2)cc1)c1nc2ccccc2[nH]1 [Example 230, (1H-benzo[d]imidazol-2-yl)(4-(3-(piperidin-4-yl)pyrazin-2-yloxy)phenyl)methanone]",< 25
19,"c1ccc2sc(Nc3ccc(Oc4nccnc4-c4ccc(N5CCOCC5)nc4)cc3)nc2c1 [Example 138, N-(4-(3-(6-morpholinopyridin-3-yl)pyrazin-2-yloxy)phenyl)benzo[d]thiazol-2-amine]",100 to 250
20,"COc1ncccc1-c1nccnc1Oc1ccc(C(O)c2nc3ccccc3[nH]2)cc1 (stereo not drawn) [Example 229, (1H-BENZO[D]IMIDAZOL-2-YL)(4-(3-(2-METHOXYPYRIDIN-3-YL)PYRAZIN-2-YLOXY)PHENYL)METHANOL]",< 25
21,"COC(=O)c1ccc(-c2nccnc2Oc2ccc(C(=O)c3nc4ccccc4[nH]3)cc2)cc1 [Example 126, methyl 4-(3-(4-(1H-benzo[d]imidazole-2-carbonyl)phenoxy)pyrazin-2-yl)benzoate]",< 25
22,"OCCC1CCN(c2nccnc2Oc2ccc(Nc3nc4ccccc4s3)cc2)CC1 [Example 86, 2-(1-(3-(4-(benzo[d]thiazol-2-ylamino)phenoxy)pyrazin-2-yl)piperidin-4-yl)ethanol]",25 to 100

# Same assay, conditions: PDE10 enzyme inhibition; average IC50 data for each compound; read-out: Average IC50
row,Structure (SMILES),IC50 [nM]
1,CC(C)(C)OC(=O)N1CC=C(c2nccnc2Oc2ccc(Nc3nc4ccccc4s3)c(F)c2)CC1 [drawing 983],70
2,O=C(c1ccc(Oc2nccnc2C2(F)CCOCC2)cc1)c1nc2ccccc2[nH]1 [drawing 924],1.83
3,COCCOc1nccnc1Oc1ccc(C(=O)c2nc3ccccc3[nH]2)cc1 [drawing 848],29.1
4,O=C1CCCC(c2nccnc2Oc2ccc(C(=O)c3nc4ccccc4[nH]3)cc2)C1 (stereo not drawn),1.33
5,O=C(c1ccc(Oc2nccnc2C(=O)O)cc1)c1nc2ccccc2[nH]1,556
6,C[C@H](F)C(=O)N1CCC(c2nccnc2Oc2ccc(C(=O)c3nc4ccccc4[nH]3)cc2)CC1 [drawing 977],0.137
7,c1ccc2sc(Nc3ccc(Oc4nccnc4C4CCCC4)cc3)nc2c1 [drawing 948],4.96
8,FC(F)(c1ccc(Oc2nccnc2C2CCOCC2)cc1)c1nc2ccccc2[nH]1,52.9
9,COc1ncccc1-c1nccnc1Oc1ccc(Nc2nc3ccc(F)cc3s2)cc1 [drawing 959],7.2
10,CC1(C)CCC(=O)[C@H](c2nccnc2Oc2ccc(C(=O)c3nc4ccccc4[nH]3)cc2)C1,41.8
11,COC(=O)C1(c2nccnc2Oc2ccc(Nc3nc4ccccc4s3)cc2)CCOCC1 [drawing 871],6.28
12,Fc1cc(-c2nccnc2Oc2ccc(Nc3nc4ccccc4s3)c(F)c2)ccn1 [drawing 974],63.1
13,O=C(c1ccc(Oc2nccnc2[C@@H]2CCCOCC2)cc1)c1nc2ccccc2[nH]1 (stereo in doubt),1.22
14,COc1cccc(-c2nccnc2Oc2ccc(C(=O)c3nc4ccccc4[nH]3)cc2)c1 [drawing 759],36
15,Fc1ccc2sc(Nc3ccc(Oc4cnccn4)cc3)nc2c1 [drawing 882],12500
16,N#CC1(c2nccnc2Oc2ccc(Nc3nc4ccccc4s3)cc2)CCOCC1 [drawing 867],4.46

row,Structure (SMILES),IC50 [nM]
1,O=C(c1ccc(Oc2nccnc2OCC(F)(F)F)cc1)c1nc2ccccc2[nH]1 [drawing 847],187
2,CC(C)COc1nccnc1Oc1ccc(C(=O)c2nc3ccccc3[nH]2)cc1 [drawing 845],26.2
3,O=C(c1ccc(Oc2nccnc2C2CCNCC2)cc1)c1nc2ccccc2[nH]1 [drawing 999],7.7
4,COC[C@@H]1CCN(c2nccnc2Oc2ccc(Nc3nc4ccccc4s3)cc2)C1 (stereo in doubt),22.6
5,CC(=O)N1CCC[C@@H](c2nccnc2Oc2ccc(C(=O)c3nc4ccccc4[nH]3)cc2)C1 (stereo in doubt),2.96
6,CC(C)Oc1nccnc1Oc1ccc(C(=O)c2nc3ccccc3[nH]2)cc1 [drawing 844],56.6
7,O=C(c1ccc(Oc2nccnc2C2CCSCC2)cc1)c1nc2ccccc2[nH]1 [drawing 932],1.85
8,O=C(c1ccc(Oc2nccnc2OCC2CCOC2)cc1)c1nc2ccccc2[nH]1 (stereo not drawn) [drawing 854],5.56
9,c1cncc(-c2nccnc2Oc2ccc(Nc3nc4ccccc4s3)cc2)c1 [drawing 823],10.4
10,C[C@@H](O)C(=O)N1CCC(c2nccnc2Oc2ccc(Nc3nc4ccccc4s3)cc2)CC1 (stereo in doubt),0.0455
11,C[C@@H](F)C(=O)N1CCC(c2nccnc2Oc2ccc(C(=O)c3nc4ccccc4[nH]3)cc2)CC1 [drawing 976],0.005
12,CN(c1ccc(Oc2nccnc2C2CCOCC2)cc1)c1nc2ccccc2s1 [drawing 870],11.8
13,CC(=O)N1CC(c2nccnc2Oc2ccc(C(=O)c3nc4ccccc4[nH]3)cc2)C1 [drawing 925],2.71
14,CN(C)CC(=O)N1CCC(c2nccnc2Oc2ccc(C(=O)c3nc4ccccc4[nH]3)cc2)CC1 [drawing 995],1.43
15,COc1ncc(F)cc1-c1nccnc1Oc1ccc(C(=O)c2nc3ccccc3[nH]2)cc1 [drawing 942],2.95
16,O=C(c1ccc(Oc2nccnc2C2CCN(CCF)CC2)cc1)c1nc2ccccc2[nH]1 [drawing 963],2.5
